Results from PubChem BioAssay AID1259408 (Genetic Toxicology Data Bank (GENE-TOX), 2018).
Activity calls are given as the source filed them. No rule for the calls is given here.

Test system: GENE-TOX genotoxicity assays, various organisms and cells
Experiment: GENE-TOX mutagenicity studies
Conditions: for call: Assay Type: In vivo carcinogenicity studies
[1] = Species/Cell Type: Bacillus subtilis (H17 vs M45), Assay Type: Rec-assay, spot test, DNA effects (bacterial DNA repair), Assay Code: REW-, Evaluation Type: Evaluation A (Pre-1980)
[2] = Species/Cell Type: Salmonella typhimurium (one or more of the five standard strains: TA98, TA100, TA1535, TA1537, and TA1538), Assay Type: Histidine reverse gene mutation, Ames assay, Assay Code: SAL+, Evaluation Type: Evaluation A (Pre-1980)
[3] = Species/Cell Type: Salmonella typhimurium, Assay Type: Forward and reverse gene mutation, host-mediated assay, Assay Code: HMA+, Evaluation Type: Evaluation A (Pre-1980)
[4] = Species/Cell Type: Salmonella typhimurium (one or more of the five standard strains: TA98, TA100, TA1535, TA1537, and TA1538), Assay Type: Histidine reverse gene mutation, Ames assay, Assay Code: SAL-, Evaluation Type: Evaluation A (Pre-1980)
[5] = Species/Cell Type: Nonhuman, Assay Type: Chromosome aberrations in vitro, Assay Code: CY&+, Evaluation Type: Evaluation A (Pre-1980)
[6] = Species/Cell Type: Nonhuman, Assay Code: CCG+, Evaluation Type: Evaluation A (Pre-1980)
[7] = Species/Cell Type: Human diploid fibroblasts, Assay Type: Unscheduled DNA synthesis (UDS) in vitro, DNA effects, Assay Code: UDH+, Evaluation Type: Evaluation A (Pre-1980)
[8] = Species/Cell Type: Bacillus subtilis (H17 vs M45), Assay Type: Rec-assay, spot test, DNA effects (bacterial DNA repair), Assay Code: REWT, Evaluation Type: Evaluation A (Pre-1980)

## CCN(CC)C(=S)S
Species/Cell Type: Nonhuman, Assay Code: CCG-, Evaluation Type: Evaluation A (Pre-1980)
  call: inactive; negative
Species/Cell Type: Vicia faba, Assay Type: Chromosome aberrations, Assay Code: VIC+, Evaluation Type: Evaluation A (Pre-1980)
  mutagenic call: active; positive

## [Cl][Zn][Cl]
[1]
  mutagenic call: inactive; negative
Species/Cell Type: Human lymphocytes or leukocytes, Assay Type: Chromosome aberrations in vitro, Assay Code: CY7-, Evaluation Type: Evaluation A (Pre-1980)
  mutagenic call: inactive; negative
Species/Cell Type: Mouse, Sex: Male, Assay Type: Sperm morphology, Assay Code: SPI-, Evaluation Type: Evaluation A (Pre-1980)
  mutagenic call: inactive; negative
[2]
  mutagenic call: active; positive
[3]
  mutagenic call: active; positive
Species/Cell Type: Syrian hamster embryo (SA7/SHE) cells, Assay Type: Cell transformation, viral enhanced, Assay Code: CT7+, Evaluation Type: Evaluation A (Pre-1980)
  mutagenic call: active; positive

## [O]=[V](=[O])[OH]
Species/Cell Type: Bacillus subtilis (H17 vs M45), Assay Type: Rec-assay, spot test, DNA effects (bacterial DNA repair), Assay Code: REW+, Evaluation Type: Evaluation A (Pre-1980)
  mutagenic call: active; positive

## Cc1ccc(Cl)cc1
Species/Cell Type: Saccharomyces cerevisiae, Assay Type: Mitotic recombination or gene conversion, Assay Code: YEH-, Evaluation Type: Evaluation A (Pre-1980)
  mutagenic call: inactive; negative
[4]
  mutagenic call: inactive; negative

## CN(C)Cc1cc(Br)ccc1OCC(=O)NN
Species/Cell Type: Saccharomyces cerevisiae, Assay Type: Reverse gene mutation, Assay Code: YERT, Evaluation Type: Evaluation A (Pre-1980)
  mutagenic call: no conclusion

## CON(C)C(=O)Nc1ccc(Br)cc1
Species/Cell Type: Hordeum vulgare (barley), Assay Type: Chromosome aberrations, Assay Code: HOC-, Evaluation Type: Evaluation A (Pre-1980)
  mutagenic call: inactive; negative

## CN1C[C@H](C(=O)N[C@]2(C)O[C@@]3(O)[C@@H]4CCCN4C(=O)[C@H](Cc4ccccc4)N3C2=O)C=C2c3cccc4[nH]cc(c34)C[C@H]21
Species/Cell Type: Rodents, Sex: Male, Assay Type: Dominant lethal test, Assay Code: DLT+, Evaluation Type: Evaluation A (Pre-1980)
  mutagenic call: active; positive

## C=CC(OC(C)=O)c1ccc2c(c1)OCO2 (stereo not given)
Species/Cell Type: Escherichia coli polA (W3119 vs P3478), Assay Type: Rec-assay, DNA effects (bacterial DNA repair), Assay Code: RE1+, Evaluation Type: Evaluation A (Pre-1980)
  mutagenic call: active; positive
Species/Cell Type: Saccharomyces cerevisiae, Assay Type: Mitotic recombination or gene conversion, Assay Code: YEH+, Evaluation Type: Evaluation A (Pre-1980)
  mutagenic call: active; positive
[2]
  mutagenic call: active; positive

## CCCCN(COC(C)=O)N=O
[2]
  mutagenic call: active; positive
Species/Cell Type: Syrian hamster embryo (SHE) cells, Assay Type: Cell transformation, clonal assay, Assay Code: CTC+, Evaluation Type: Evaluation A (Pre-1980)
  mutagenic call: active; positive

## C#C[C@@]1(O)CC[C@@H]2[C@H]3CCC4=CC(=O)CC[C@H]4[C@@H]3CC[C@]21CC
Species/Cell Type: Rabbit, Sex: Male, Assay Type: Sperm morphology, Assay Code: SPR-, Evaluation Type: Evaluation A (Pre-1980)
  mutagenic call: inactive; negative

## S=P(N1CC1)(N1CC1)N1CC1
Species/Cell Type: Drosophila melanogaster, Assay Type: Sex-linked recessive lethal gene mutation, Assay Code: SRL+, Evaluation Type: Evaluation A (Pre-1980)
  mutagenic call: active; positive
Species/Cell Type: Human lymphocytes or leukocytes, Assay Type: Chromosome aberrations in vitro, Assay Code: CY7+, Evaluation Type: Evaluation A (Pre-1980)
  mutagenic call: active; positive
Species/Cell Type: Human lymphocytes, Assay Type: Sister-chromatid exchange (SCE) in vitro, Assay Code: SCL+D, Dose Response: With dose response, Evaluation Type: Evaluation B (Post-1980)
  mutagenic call: active; positive
Species/Cell Type: Human, Assay Type: Sister-chromatid exchange (SCE) in vitro, Assay Code: SC1+D, Dose Response: With dose response, Evaluation Type: Evaluation B (Post-1980)
  mutagenic call: active; positive
Species/Cell Type: Mammalian polychromatic erythrocytes, Assay Type: Micronucleus test, chromosome aberrations, Assay Code: MNT+, Evaluation Type: Evaluation A (Pre-1980)
  mutagenic call: active; positive
Species/Cell Type: Mouse (C3H/10T1/2) cells, Assay Type: Cell transformation, Assay Code: CTH+, Evaluation Type: Evaluation A (Pre-1980)
  mutagenic call: active; positive
Species/Cell Type: Mouse, Sex: Male, Assay Type: Heritable translocation test, chromosome aberrations, Assay Code: HTT+, Evaluation Type: Evaluation A (Pre-1980)
  mutagenic call: active; positive
Species/Cell Type: Mouse, Sex: Male, Assay Type: Sperm morphology, Assay Code: SPI+, Evaluation Type: Evaluation A (Pre-1980)
  mutagenic call: active; positive
Species/Cell Type: Nonhuman bone marrow, Assay Type: Chromosome aberrations, in vivo, Assay Code: CY#+D, Dose Response: With dose response, Evaluation Type: Evaluation A (Pre-1980)
  mutagenic call: active; positive
[5]
  mutagenic call: active; positive
[6]
  call: active; positive
Species/Cell Type: Nonhuman, Assay Type: Sister-chromatid exchange (SCE) in vitro, Assay Code: SC2+D, Dose Response: With dose response, Evaluation Type: Evaluation A (Pre-1980)
  mutagenic call: active; positive
Species/Cell Type: Rodents, Sex: Male, Assay Type: Dominant lethal test, Assay Code: DLT+D, Dose Response: With dose response, Evaluation Type: Evaluation A (Pre-1980)
  mutagenic call: active; positive
Species/Cell Type: Saccharomyces cerevisiae, Assay Type: Mitotic recombination or gene conversion, Assay Code: YEC+, Evaluation Type: Evaluation A (Pre-1980)
  mutagenic call: active; positive
[2]
  mutagenic call: active; positive
[3]
  mutagenic call: active; positive
Species/Cell Type: Vicia faba, Assay Type: Chromosome aberrations, Assay Code: VIC+D, Dose Response: With dose response, Evaluation Type: Evaluation A (Pre-1980)
  mutagenic call: active; positive

## CCCCCCCCCCCCCC(=O)N(OC(C)=O)c1ccc2c(c1)Cc1ccccc1-2
[7]
  mutagenic call: active; positive
[2]
  mutagenic call: active; positive

## O=c1ccc2ccccc2[nH]1
[4]
  mutagenic call: inactive; negative

## Clc1ccc(C(c2ccccc2Cl)C(Cl)Cl)cc1 (stereo not given)
[5]
  mutagenic call: active; positive

## c1ccc2c(c1)cnc1ccccc12
Species/Cell Type: Salmonella typhimurium (one or more of the five standard strains: TA98, TA100, TA1535, TA1537, and TA1538), Assay Type: Histidine reverse gene mutation, Ames assay, Assay Code: SAL+*, Activation: With metabolic activation, Evaluation Type: Evaluation A (Pre-1980)
  mutagenic call: active; positive

## CCN(Cc1ccccc1)c1ccc(C(=C2C=CC(=[N+](CC)Cc3ccccc3)C=C2)c2ccc(S(=O)(=O)O)cc2S(=O)(=O)[O-])cc1
[8]
  mutagenic call: no conclusion

## C[C@]12CCC(=O)C=C1CC[C@@H]1[C@@H]2CC[C@@]2(C)[C@H]1CC[C@]2(C)O
Species/Cell Type: Human, Sex: Male, Assay Type: Sperm morphology, Assay Code: SPH-, Evaluation Type: Evaluation A (Pre-1980)
  mutagenic call: inactive; negative

## Cc1cc2nc3cc(C)c(N)cc3[n+](-c3ccccc3)c2cc1N
[8]
  mutagenic call: no conclusion

## Cc1ccccc1S(N)(=O)=O
Species/Cell Type: Drosophila melanogaster, Assay Type: Sex-linked recessive lethal gene mutation, Assay Code: SRLT, Evaluation Type: Evaluation A (Pre-1980)
  mutagenic call: no conclusion
Species/Cell Type: Mammalian polychromatic erythrocytes, Assay Type: Micronucleus test, chromosome aberrations, Assay Code: MNTT, Evaluation Type: Evaluation B (Post-1980)
  mutagenic call: no conclusion
[4]
  mutagenic call: inactive; negative

## [Cl][Ni][Cl]
[1]
  mutagenic call: inactive; negative
Species/Cell Type: Escherichia coli WP2, Assay Type: Tryptophan reverse gene mutation, Assay Code: WP2-, Evaluation Type: Evaluation A (Pre-1980)
  mutagenic call: inactive; negative
Species/Cell Type: Human lymphocytes, Assay Type: Sister-chromatid exchange (SCE) in vitro, Assay Code: SCL+, Evaluation Type: Evaluation B (Post-1980)
  mutagenic call: active; positive
Species/Cell Type: Human, Assay Type: Sister-chromatid exchange (SCE) in vitro, Assay Code: SC1+, Evaluation Type: Evaluation B (Post-1980)
  mutagenic call: active; positive
Species/Cell Type: Nonhuman, Assay Type: Sister-chromatid exchange (SCE) in vitro, Assay Code: SC2+, Evaluation Type: Evaluation B (Post-1980)
  mutagenic call: active; positive
Species/Cell Type: Salmonella typhimurium, Serratia marcesens, Assay Type: Forward and reverse gene mutation, host-mediated assay, Assay Code: HM2T, Evaluation Type: Evaluation A (Pre-1980)
  mutagenic call: no conclusion

## CC1CN(N=O)CC(C)N1C(=O)c1ccccc1 (stereo not given)
Species/Cell Type: Salmonella typhimurium (one or more of the five standard strains: TA98, TA100, TA1535, TA1537, and TA1538), Assay Type: Histidine reverse gene mutation, Ames assay, Assay Code: SALT, Evaluation Type: Evaluation A (Pre-1980)
  mutagenic call: no conclusion

## CCCOC(=O)c1ccc(O)cc1
[4]
  mutagenic call: inactive; negative

## CC(=O)N(O)c1ccc(/C=C\c2ccccc2)cc1
[7]
  mutagenic call: active; positive
[6]
  call: active; positive

## CC(=O)NS(=O)(=O)c1ccc(N)cc1
Species/Cell Type: Neurospora crassa, Assay Type: Aneuploidy, chromosome aberrations, Assay Code: NEN+, Evaluation Type: Evaluation A (Pre-1980)
  mutagenic call: active; positive
Species/Cell Type: Saccharomyces cerevisiae, Assay Type: Aneuploidy, chromosome aberrations, Assay Code: YEN+, Evaluation Type: Evaluation A (Pre-1980)
  mutagenic call: active; positive
